Patent US7671009B2, “Dermopharmaceutically and cosmetically active oligopeptides” (DSM IP Assets B.V., priority 2001, dated 2010)
*: point of attachment. Palmitoyl = CCCCCCCCCCCCCCCC(=O)*

System: Collagen Synthesis Type I+III in Fibroblast Cell Cultures (ATCC CCL110)
Assay: Stimulation of collagen synthesis type I+III in fibroblast cell cultures, Sirius Red microassay
Assay type: cell-based
Details: 24 hours incubation, control without active = 100%
Protocol: The collagen I and III content in fibroblasts is measured with the Sirius Red microassay. The quantitative determination of collagen is carried out after 24 hours of incubation with the corresponding oligopeptide derivatives. The extracellularly accumulated collagen is determined. Vitamin C and TGF-beta-1 are used as positive controls.
ATCC CCL110 fibroblasts are incubated in culture medium at a density of approx. 125,000 cells/well in 6-well cell culture plates for 2 days (37° C./5% CO2). Afterwards, the medium is discarded and washed twice with PBS, whereupon 1 ml of test medium with corresponding test substances is added. After incubation with test substance under culture conditions (37° C./5% CO2) for further 24 hours, the extracellular collagen is measured with the Sirius Red assay.
After the incubation period, the total volume of test medium (1 ml) is transferred into a flat-bottom 24-well plate and dried overnight at 55° C. The samples are fixed with 1 ml/well of Bouin's fluid for 1 hour at room temperature (RT). The fixing solution is discarded and the plates are washed 2-3 times with water. After drying of the plates, 1 ml of Sirius Red dye reagent is added.
The samples are shaken for 1 hour at RT on a microplate agitator at moderate intensity. Afterwards, the Sirius Red dye reagent is discarded and the plates are washed with 0.01N HCl. The tinted material is dissolved in 0.3 ml of 0.1N NaOH solution and shaken on a microplate agitator for 1 hour at RT.
200 μl of solution is transferred into a flat-bottom 96-well plate and the optical density is measured at 540 nm against 0.1N NaOH solution as the blank.
Culture medium: MEM+10% FCS+100 IU/ml penicillin+0.1 mg/ml streptomycin+1 mM non essential amino acids+1 mM Na-pyruvate+2 mM L-glutamine.
Test medium: DMEM without phenol red (AMIMED)+100 IU/ml penicillin+0.1 mg/ml streptomycin+80 μg/ml beta(β)-aminopropionitrile.
Vitamin C 100 mM (SIGMA A4034) is diluted to 50 μg/ml in the test medium.
Transforming growth factor TGFβ1 1 μg/ml (SIGMA T1654) is diluted to 0.1 ng/ml in the test medium.
The oligopeptide derivatives of the present invention are prepared in a regular concentration of 10 mM and diluted to 50 μM in the test medium.
Sirius Red F3BA dye reagent as the stock solution 1 mg/ml in saturated aqueous picric acid solution. Bouin's fluid: 15 ml of saturated aqueous picric acid solution+5 ml of formaldehyde+1 ml of acetic acid.

Compound | collagen type I + III after 24 hours, Extracellular (test substance 50 μM) [%] | further results
O=C1O[C@H]([C@@H](O)CO)C(O)=C1O [Vitamin C, reference compound] |  | collagen type I + III after 24 hours, Extracellular (Vitamin C positive control, diluted to 50 μg/ml in test medium): 128%
Lipoyl-Lys (Lipoyl)-Thr-Thr-Lys (Lipoyl)-Ser-OH | 162 | 
Palm-Lys-Thr-Ser-Lys-Ser-OH (Palmitoyl-KTSKS-OH; SMILES CCCCCCCCCCCCCCCC(=O)N[C@@H](CCCCN)C(=O)N[C@H](C(=O)N[C@@H](CO)C(=O)N[C@@H](CCCCN)C(=O)N[C@@H](CO)C(=O)O)[C@@H](C)O) | 128 | 
H-Lys-Thr-Thr-Dab-Ser-OH × 3 AcOH | 137 | 
H-Dab-Ser-OH × 2 TFA | 131 | 
H-Lys-allo-Thr-allo-Thr-Lys-Ser-OH × 3 AcOH | 139 | 
TGFβ1: Transforming growth factor TGFβ1 (SIGMA T1654), positive control [reference compound] |  | collagen type I + III after 24 hours, Extracellular (0.1 ng/ml): 115%
H-Lys-Thr-allo-Thr-Lys-Ser-OH × 3 AcOH | 134 | 
